Type in all cases: cell-based
The test system of data set [1] is HeLa. Nature of the data set: Cytotoxicity against human TREx-HeLa cells assessed as cell viability at 2.5 uM after 48 hrs by WST-8 assay. For orientation: Formazan colour is commonly taken as a measure of viable cells.
In data set [2] the test system is Human immunodeficiency virus 1. Nature of the data set: Inhibition of c-myc and His6-tagged full length HIV1 NL4-3 Vpr transfected in human TREx-HeLa cells assessed as cell proliferation at 1.25 uM after 48 hrs in presence of tetracycline by WST-8 assay (reference value: 100 +/- 1%). On the set-up: scale not given: the % may be the effect or the level left.
Data set [3] concerns Human immunodeficiency virus 1. Briefly: Inhibition of c-myc and His6-tagged full length HIV1 NL4-3 Vpr transfected in human TREx-HeLa cells assessed as cell proliferation at 2.5 uM after 48 hrs in presence of tetracycline by WST-8 assay (reference value: 100 +/- 1%). On the set-up: scale not given: the % may be the effect or the level left.
The test system of data set [4] is Human immunodeficiency virus 1. Nature of the data set: Inhibition of c-myc and His6-tagged full length HIV1 NL4-3 Vpr transfected in human TREx-HeLa cells assessed as cell proliferation at 5 uM after 48 hrs in presence of tetracycline by WST-8 assay (reference value: 100 +/- 1%). More on the design: scale not given: the % may be the effect or the level left.
Data set [5] relates to Human immunodeficiency virus 1. Nature of the data set: Inhibition of c-myc and His6-tagged full length HIV1 NL4-3 Vpr transfected in human TREx-HeLa cells assessed as cell proliferation at 1.25 uM after 48 hrs in presence of tetracycline by WST-8 assay.

On to `COC1=C(C)[C@@H]2CC(=O)O[C@@H]3C[C@H]4CC[C@H](OC)C(=O)[C@]4(C)[C@@H](C1=O)[C@@]32C`, for which the Activity entry was “Non-Toxic” in data set [1], 165% in data set [2], 168% in data set [3] and 173% in data set [4].
As to `COC1=CC[C@@H]2C[C@H]3OC(=O)C[C@H]4C(C=O)=C(OC)C(=O)[C@H]([C@@]2(C)C1=O)[C@@]34C`, the Activity entry in data set [1] was “Non-Toxic”; in data set [2], 131%; in data set [3], 153%; in data set [4], 152%.
For `COC1=CC[C@@H]2C[C@H]3OC(O)C[C@H]4C(C)=C(OC)C(=O)[C@H]([C@@]2(C)C1=O)[C@@]34C` (stereo not given in full), in that order: “Non-Toxic”, 170%, 174% and 178%.
For `COc1c(C=O)c(O)cc2c1C(=O)c1ccccc1C2=O` [DAMNACANTHAL], in that order: “Non-Toxic”, 203%, 218% and 219%.
In the case of `COC1=CC[C@@H]2C[C@H]3OC(=O)C=C4C(C)=C(OC)C(=O)[C@H]([C@@]2(C)C1=O)[C@]43C`, the inhibition entry in data set [5] was “Dose-dependent effect”. Further, the Activity result is “Non-Toxic” in data set [1], 175% in data set [2], 214% in data set [3] and 216% in data set [4].
As for `COC1=CC[C@@H]2C[C@H]3OC(=O)C[C@H]4C(CO)=C(OC)C(=O)[C@H]([C@@]2(C)C1=O)[C@@]34C`, the Activity result in data set [1] is “Non-Toxic”; in data set [2], 148%; in data set [3], 147%; in data set [4], 150%.
`COC1=C(OC)C(=O)[C@@]2(C)[C@H](C1)C[C@H]1OC(=O)C[C@H]3C(C)=C(OC)C(=O)[C@H]2[C@@]13C`: the Activity result in data set [1] is “Non-Toxic”; in data set [2] it was 112%; in data set [3], 136%; in data set [4] it was 134%.
On to `COC1=C(OC)C(=O)[C@@]2(C)[C@H](C1)C[C@H]1OC(=O)C[C@H]3C(CO)=C(OC)C(=O)[C@H]2[C@@]13C`, for which the Activity result was “Non-Toxic” in data set [1], 139% in data set [2], 126% in data set [3] and 127% in data set [4].
For `COC1=C(OC)C(=O)[C@@]2(C)[C@H](C1)C[C@H]1OC(=O)C[C@@]3(O)C(C)=C(OC)C(=O)[C@H]2[C@@]13C`, in that order: “Non-Toxic”, 141%, 138% and 139%.
Regarding `COC1=C(C)[C@@H]2CC(=O)O[C@@H]3C[C@H]4CC[C@H](O)C(=O)[C@]4(C)[C@@H](C1=O)[C@@]32C`, the Activity result in data set [1] was “Non-Toxic”; in data set [2], 156%; in data set [3], 156%; in data set [4], 158%.
Take `COC1=C(CO)[C@@H]2CC(=O)O[C@@H]3C[C@H]4CC[C@H](O)C(=O)[C@]4(C)[C@@H](C1=O)[C@@]32C`: the Activity result in data set [1] is “Non-Toxic”; in data set [2], 102%; in data set [3], 137%; in data set [4] it was 135%.
As to `COC1=C[C@@H](O)[C@@H]2C[C@H]3OC(=O)C[C@H]4C(C)=C(OC)C(=O)[C@H]([C@@]2(C)C1=O)[C@@]34C`, the Activity entry in data set [1] was “Non-Toxic”; in data set [2], 140%; in data set [3], 138%; in data set [4], 141%.
On to `COC1=CC[C@@H]2C[C@H]3OC(=O)C[C@H]4C(C)=C(OC)C(=O)[C@H]([C@@]2(C)C1=O)[C@@]34C`, for which the Activity result in data set [1] was “Non-Toxic”; in data set [2], 157%; in data set [3], 159%; in data set [4], 163%.
In the case of `COC1=C(C)[C@]2(O)CC(=O)O[C@@H]3C[C@H]4CC[C@H](O)C(=O)[C@]4(C)[C@@H](C1=O)[C@@]32C`, the Activity result in data set [1] is “Non-Toxic”; in data set [2], 162%; in data set [3], 166%; in data set [4], 170%.
Taken in the same sequence, the figures for `COC1=CC(=O)[C@@H]2C[C@H]3OC(=O)C[C@H]4C(C)=C(OC)C(=O)[C@H]([C@@]2(C)C1=O)[C@@]34C` were “Non-Toxic”, 117%, 155% and 155%.
Taken in the same sequence, the figures for `COC1=CC[C@@H]2C[C@H]3OC(=O)C=C4C(CO)=C(OC)C(=O)[C@H]([C@@]2(C)C1=O)[C@]43C` were “Non-Toxic”, 132%, 140% and 141%.

For the origin of these results see ChEMBL document CHEMBL4428086, “Quassinoids: Viral protein R inhibitors from Picrasma javanica bark collected in Myanmar for HIV infection” (Bioorg Med Chem Lett, 2016).
